Results taken from ChEMBL document CHEMBL5303573, “Mapping human microbiome drug metabolism by gut bacteria and their genes” (Nature, 2019).

Experiments:
[1] = The drug is tested on Clostridium scindens strain: ATCC35704 for biotransformation. The drug concentrations were measured before and after a 12-h incubation by liquid-chromatography-coupled mass spectrometry (LC–MS); conditions: 2 µM
[2] = The drug is tested on Collinsella aerofaciens strain: ATCC25986 for biotransformation. The drug concentrations were measured before and after a 12-h incubation by liquid-chromatography-coupled mass spectrometry (LC–MS); conditions: 2 µM
[3] = The drug is tested on Bacteroides sp. WH2 strain: WH2 for biotransformation. The drug concentrations were measured before and after a 12-h incubation by liquid-chromatography-coupled mass spectrometry (LC–MS); conditions: bacteroides sp. wh2, 12 h, 2 µM
[4] = parabacteroides johnsonii, 12 h, 2 µM
Description: The drug is tested on Parabacteroides johnsonii strain: DSM18315 for biotransformation. The drug concentrations were measured before and after a 12-h incubation by liquid-chromatography-coupled mass spectrometry (LC–MS)

[5] = bacteroides fragilis, 12 h, 2 µM
Description: The drug is tested on Bacteroides fragilis strain: 3397 (T10) for biotransformation. The drug concentrations were measured before and after a 12-h incubation by liquid-chromatography-coupled mass spectrometry (LC–MS)

[6] = parabacteroides distasonis, 12 h, 2 µM
Description: The drug is tested on Parabacteroides distasonis strain: ATCC8503 for biotransformation. The drug concentrations were measured before and after a 12-h incubation by liquid-chromatography-coupled mass spectrometry (LC–MS)

[7] = The drug is tested on Clostridium symbiosum strain: ATCC14940 for biotransformation. The drug concentrations were measured before and after a 12-h incubation by liquid-chromatography-coupled mass spectrometry (LC–MS); conditions: 2 µM
[8] = The drug is tested on Bacteroides pectinophilus strain: ATCC43243 for biotransformation. The drug concentrations were measured before and after a 12-h incubation by liquid-chromatography-coupled mass spectrometry (LC–MS); conditions: 2 µM
[9] = The drug is tested on Eubacterium hallii strain: DSM3353 for biotransformation. The drug concentrations were measured before and after a 12-h incubation by liquid-chromatography-coupled mass spectrometry (LC–MS); conditions: anaerobutyricum hallii, 2 µM
[10] = bifidobacterium adolescentis, 12 h, 2 µM
Description: The drug is tested on Bifidobacterium adolescentis strain: ATCC 15703 for biotransformation. The drug concentrations were measured before and after a 12-h incubation by liquid-chromatography-coupled mass spectrometry (LC–MS)

[11] = The drug is tested on Providencia stuartii strain: ATCC25827 for biotransformation. The drug concentrations were measured before and after a 12-h incubation by liquid-chromatography-coupled mass spectrometry (LC–MS); conditions: 2 µM
[12] = The drug is tested on Blautia hansenii strain: DSM20583 for biotransformation. The drug concentrations were measured before and after a 12-h incubation by liquid-chromatography-coupled mass spectrometry (LC–MS); conditions: 2 µM
[13] = The drug is tested on Ruminococcus torques strain: ATCC27756 for biotransformation. The drug concentrations were measured before and after a 12-h incubation by liquid-chromatography-coupled mass spectrometry (LC–MS); format: ADME; design: dose 2 uM, timepoint 0 vs 12 hours; conditions: 2 µM
[14] = bacteroides thetaiotaomicron, 12 h, 2 µM
Description: The drug is tested on Bacteroides thetaiotaomicron strain: VPI-5482 for biotransformation. The drug concentrations were measured before and after a 12-h incubation by liquid-chromatography-coupled mass spectrometry (LC–MS)

[15] = The drug is tested on Clostridium ramosum strain: DSM1402 for biotransformation. The drug concentrations were measured before and after a 12-h incubation by liquid-chromatography-coupled mass spectrometry (LC–MS); conditions: thomasclavelia ramosa, 2 µM
[16] = The drug is tested on Enterobacter cancerogenus strain: ATCC35316 for biotransformation. The drug concentrations were measured before and after a 12-h incubation by liquid-chromatography-coupled mass spectrometry (LC–MS); conditions: 2 µM
[17] = The drug is tested on Bifidobacterium longum subsp. Infantis strain: CCUG52486 for biotransformation. The drug concentrations were measured before and after a 12-h incubation by liquid-chromatography-coupled mass spectrometry (LC–MS); conditions: 2 µM
[18] = The drug is tested on Escherichia coli strain: BW25113 for biotransformation. The drug concentrations were measured before and after a 12-h incubation by liquid-chromatography-coupled mass spectrometry (LC–MS); conditions: 2 µM
[19] = The drug is tested on Providencia rettgeri strain: DSM1131 for biotransformation. The drug concentrations were measured before and after a 12-h incubation by liquid-chromatography-coupled mass spectrometry (LC–MS); format: ADME; design: dose 2 uM, timepoint 0 vs 12 hours; conditions: 2 µM
[20] = enterocloster bolteae, 12 h, 2 µM
Description: The drug is tested on Clostridium bolteae strain: ATCCBAA-613 for biotransformation. The drug concentrations were measured before and after a 12-h incubation by liquid-chromatography-coupled mass spectrometry (LC–MS)

Row | SMILES | Bacterial Biotransformation [1] | Bacterial Biotransformation [2] | Bacterial Biotransformation [3] | Bacterial Biotransformation [4] | Bacterial Biotransformation [5] | Bacterial Biotransformation [6] | Bacterial Biotransformation [7] | Bacterial Biotransformation [8] | Bacterial Biotransformation [9] | Bacterial Biotransformation [10] | Bacterial Biotransformation [11] | Bacterial Biotransformation [12] | Bacterial Biotransformation [13] | Bacterial Biotransformation [14] | Bacterial Biotransformation [15] | Bacterial Biotransformation [16] | Bacterial Biotransformation [17] | Bacterial Biotransformation [18] | Bacterial Biotransformation [19] | Bacterial Biotransformation [20]
1 | CN1C[C@H](C(=O)N[C@]2(C)O[C@@]3(O)[C@@H]4CCCN4C(=O)[C@H](Cc4ccccc4)N3C2=O)C=C2c3cccc4[nH]cc(c34)C[C@H]21.CN1C[C@H](C(=O)N[C@]2(C)O[C@@]3(O)[C@@H]4CCCN4C(=O)[C@H](Cc4ccccc4)N3C2=O)C=C2c3cccc4[nH]cc(c34)C[C@H]21.O=C(O)C(O)C(O)C(=O)O [ERGOTAMINE TARTRATE] | Compound metabolized | Compound metabolized | Compound metabolized | Compound metabolized | Compound metabolized | Compound metabolized | Compound metabolized | Compound metabolized | Compound metabolized | Compound metabolized | Compound metabolized | Compound metabolized | Compound NOT metabolized | Compound metabolized | Compound metabolized | Compound metabolized | Compound metabolized | Compound metabolized | Compound metabolized | Compound metabolized
2 | CCOc1ccc2nc(S(N)(=O)=O)sc2c1 [ETHOXZOLAMIDE] | Compound metabolized | Compound metabolized | Compound metabolized | Compound metabolized | Compound metabolized | Compound metabolized | Compound metabolized | Compound metabolized | Compound metabolized | Compound metabolized | Compound metabolized | Compound metabolized | Compound metabolized | Compound metabolized | Compound metabolized | Compound metabolized | Compound metabolized | Compound metabolized | Compound metabolized | Compound metabolized
3 | CC(Oc1c(Cl)cccc1Cl)C1=NCCN1 (stereo not given) [LOFEXIDINE] | Compound metabolized | Compound metabolized | Compound metabolized | Compound metabolized | Compound metabolized | Compound NOT metabolized | Compound metabolized | Compound metabolized | Compound metabolized | Compound metabolized | Compound metabolized | Compound metabolized | Compound metabolized | Compound metabolized | Compound metabolized | Compound metabolized | Compound metabolized | Compound metabolized | Compound metabolized | Compound metabolized
4 | CC[C@@H](CO)NC(=O)[C@@H]1C=C2c3cccc4c3c(cn4C)C[C@H]2N(C)C1.O=C(O)/C=C\C(=O)O [METHYSERGIDE MALEATE] | Compound metabolized | Compound metabolized | Compound metabolized | Compound metabolized | Compound metabolized | Compound metabolized | Compound metabolized | Compound metabolized | Compound metabolized | Compound metabolized | Compound metabolized | Compound metabolized | Compound metabolized | Compound metabolized | Compound metabolized | Compound metabolized | Compound metabolized | Compound metabolized | Compound metabolized | Compound metabolized
5 | CC#C[C@]1(O)CC[C@H]2[C@@H]3CCC4=CC(=O)CCC4=C3[C@@H](c3ccc(N(C)C)cc3)C[C@@]21C [MIFEPRISTONE] | Compound NOT metabolized | Compound NOT metabolized | Compound NOT metabolized | Compound NOT metabolized | Compound NOT metabolized | Compound NOT metabolized | Compound NOT metabolized | Compound NOT metabolized | Compound NOT metabolized | Compound NOT metabolized | Compound NOT metabolized | Compound metabolized | Compound NOT metabolized | Compound NOT metabolized | Compound NOT metabolized | Compound NOT metabolized | Compound NOT metabolized | Compound NOT metabolized | Compound NOT metabolized | Compound NOT metabolized
6 | COc1c(C)c2c(c(O)c1C/C=C(\C)CCC(=O)OCCN1CCOCC1)C(=O)OC2 [MYCOPHENOLATE MOFETIL] | Compound metabolized | Compound metabolized | Compound metabolized | Compound metabolized | Compound metabolized | Compound metabolized | Compound metabolized | Compound metabolized | Compound metabolized | Compound metabolized | Compound metabolized | Compound metabolized | Compound metabolized | Compound metabolized | Compound metabolized | Compound metabolized | Compound metabolized | Compound metabolized | Compound metabolized | Compound metabolized
7 | CCOC(=O)C1=C(C)NC(C)=C(C(=O)OC)C1c1cccc([N+](=O)[O-])c1 (stereo not given) [NITRENDIPINE] | Compound metabolized | Compound metabolized | Compound metabolized | Compound metabolized | Compound metabolized | Compound metabolized | Compound metabolized | Compound metabolized | Compound metabolized | Compound metabolized | Compound NOT metabolized | Compound metabolized | Compound metabolized | Compound metabolized | Compound metabolized | Compound NOT metabolized | Compound metabolized | Compound metabolized | Compound metabolized | Compound metabolized
8 | COc1ccc2[nH]c([S+]([O-])Cc3ncc(C)c(OC)c3C)nc2c1 (stereo not given) [OMEPRAZOLE] | Compound metabolized | Compound metabolized | Compound metabolized | Compound metabolized | Compound metabolized | Compound metabolized | Compound metabolized | Compound metabolized | Compound metabolized | Compound metabolized | Compound metabolized | Compound metabolized | Compound metabolized | Compound metabolized | Compound metabolized | Compound metabolized | Compound metabolized | Compound metabolized | Compound metabolized | Compound metabolized
